{
  "source": "patent US11447577B2",
  "about": "“Cyclodextrin based polymers, methods, compositions and applications thereof” (priority 2016, dated 2022)",
  "key": {"in vivo": {"experiment": "in vivo", "set-up": "species or system mice", "settings": "mouse, sc, 500 mg/kg", "procedure": "The effects of various cyclodextrin polymers were tested on WT mice. WT mice were injected with a single sub-cutaneous dose of 500 mg/kg of HPbCD, Polymer A, or Polymer B. PK measurements were taken every 2 hours via HPLC-UV measurements of mouse plasma. FIG. 28 presents the half-life results of this experiment. […] The recovery was 90% from plasma and tissues."}, "Npc1^nih mice": {"test_system": "Npc1^nih mice", "experiment": "Efficacy study in Npc1^nih mouse model (body weight, balance beam test, survival)", "type": "in vivo", "settings": "HPβCD 4 mg/g s.c. weekly starting at PN7", "procedure": "Npc1^nih mouse model is a model for an early onset and faster progressing human diseases. This mouse model arises from the insertion of an active retrotransposon, a spontaneous mutation, which generated a frameshift resulting in a “knock out” of Npc1 gene: small amount of truncated Npc1 mRNA and no protein.\nNpc1^nih mice received Polymer B (0.8 mg/g body weight) via injection (s.c.) at the scruff of the neck at PN4, PN7, and PN14. Another group of Npc1^nih mice received HPβCD (4 mg/g body weight; obtained from Sigma-Aldrich and used as received, CAS: 128446-35-5) via injected (s.c.) weekly starting at PN7. Control mice received PBS (sham). Mean volume of the injection was between 50 to 100 μL according to mice size. The body weight, motor behaviour, and survival rate of each group of mice were analyzed.\nExample 5 was repeated for Npc1^nih mice receiving Polymer A (0.4 mg/g body weight) via injected (s.c.) weekly starting at PN7 and ending at PN70. The body weight and motor behaviours were analyzed. The results of these analyses were compared to the control mice results from Example 5. […]\nThe effects of various cyclodextrin polymers, doses, and injection schedules were tested on Npc1^nih mice. […] The body weight, motor behaviour, and survival rate of each group of mice were analyzed."}, "nmf164 mice": {"test_system": "nmf164 mice", "settings": "4000 mg/kg; cited from earlier work"}},
  "data": [
    {"molecule": "CC(O)COC[C@H]1O[C@@H]2O[C@H]3[C@H](O)[C@@H](O)[C@@H](O[C@H]4[C@H](O)[C@@H](O)[C@@H](O[C@H]5[C@H](O)[C@@H](O)[C@@H](O[C@H]6[C@H](O)[C@@H](O)[C@@H](O[C@H]7[C@H](O)[C@@H](O)[C@@H](O[C@H]8[C@H](O)[C@@H](O)[C@@H](O[C@H]1[C@H](O)[C@H]2O)O[C@@H]8COCC(C)O)O[C@@H]7COCC(C)O)O[C@@H]6COCC(C)O)O[C@@H]5COCC(C)O)O[C@@H]4COCC(C)O)O[C@@H]3COCC(C)O", "note": "(stereo partly drawn) [HPβCD, Hydroxypropyl-β-cyclodextrin]", "values": [
      {"measurement": "bioavailability", "setting": "in vivo", "value": 42, "unit": "%"},
      {"measurement": "Body weight and motor behaviour assessment together (rescuing efficacy)", "setting": "Npc1^nih mice", "value": "rescuing efficacy"},
      {"measurement": "Survival", "setting": "Npc1^nih mice; control about 10-11 weeks", "value": "16-17 weeks"},
      {"measurement": "Median survival", "setting": "nmf164 mice", "value": "175 to 185", "unit": "days"}
    ]}
  ]
}
